Experimental data from article PMC9299836 (eLife, 2022).

Target: mGluR2 (Mus musculus, UniProt Q14BI2, A548F)
Test: Single-molecule FRET (SiMPull) of azi-CRD: population histograms and state occupancy;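 further: Cy3/Cy5-labelled receptor from HEK293T cell lysate captured on anti-FLAG surfaces, apparent FRET efficiency computed from donor and acceptor intensities with crosstalk correction, pooled into population histograms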
Conditions: for smFRET Histogram, Mean: N 3; for Mean occupancy, state 1 (inactive, FRET 0.24) / Mean occupancy, state 2 (intermediate 1, FRET 0.38) / Mean occupancy, state 3 (intermediate 2, FRET 0.70) / Mean occupancy, state 4 (active, FRET 0.87): azi-CRD, 5 μM modulator, fraction of total area

Chain of mGluR2 (Q14BI2 19-872 A548F): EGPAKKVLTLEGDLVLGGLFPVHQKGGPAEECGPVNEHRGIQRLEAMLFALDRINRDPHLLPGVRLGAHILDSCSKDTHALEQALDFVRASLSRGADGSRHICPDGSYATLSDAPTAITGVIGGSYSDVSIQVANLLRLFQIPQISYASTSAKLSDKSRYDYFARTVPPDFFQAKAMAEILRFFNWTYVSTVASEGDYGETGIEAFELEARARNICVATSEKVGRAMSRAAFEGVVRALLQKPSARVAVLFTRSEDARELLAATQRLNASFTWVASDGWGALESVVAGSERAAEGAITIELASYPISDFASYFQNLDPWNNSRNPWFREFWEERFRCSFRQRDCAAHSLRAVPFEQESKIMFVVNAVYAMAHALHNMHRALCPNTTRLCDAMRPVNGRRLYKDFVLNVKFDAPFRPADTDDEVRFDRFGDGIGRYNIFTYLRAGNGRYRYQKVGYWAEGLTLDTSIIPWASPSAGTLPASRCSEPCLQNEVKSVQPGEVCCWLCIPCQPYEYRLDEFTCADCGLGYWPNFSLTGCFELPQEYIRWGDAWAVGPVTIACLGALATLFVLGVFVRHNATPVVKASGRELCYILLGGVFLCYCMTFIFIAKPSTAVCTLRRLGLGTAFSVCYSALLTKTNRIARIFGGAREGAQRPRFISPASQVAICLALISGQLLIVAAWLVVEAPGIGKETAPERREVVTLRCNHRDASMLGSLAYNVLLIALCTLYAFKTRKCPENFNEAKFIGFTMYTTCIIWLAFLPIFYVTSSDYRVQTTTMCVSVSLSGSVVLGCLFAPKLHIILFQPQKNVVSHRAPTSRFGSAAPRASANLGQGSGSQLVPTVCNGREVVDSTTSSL

MNI-137
smFRET Histogram, Mean (FRET 0.28, 15μM Glutamate + 5μM MNI-137): 0.05374
smFRET Histogram, Mean (FRET 0.3, 0μM Glutamate + GPT/Pyruvate + 5μM MNI-137): 0.06941
smFRET Histogram, Mean (FRET 0.3, 15μM Glutamate + 5μM MNI-137): 0.06299
smFRET Histogram, Mean (FRET 0.32, 0μM Glutamate + GPT/Pyruvate + 5μM MNI-137): 0.05758
smFRET Histogram, Mean (FRET 0.32, 15μM Glutamate + 5μM MNI-137): 0.07069
smFRET Histogram, Mean (FRET 0.34, 0μM Glutamate + GPT/Pyruvate + 5μM MNI-137): 0.04784
smFRET Histogram, Mean (FRET 0.34, 15μM Glutamate + 5μM MNI-137): 0.0754
smFRET Histogram, Mean (FRET 0.36, 0μM Glutamate + GPT/Pyruvate + 5μM MNI-137): 0.03831
smFRET Histogram, Mean (FRET 0.36, 15μM Glutamate + 5μM MNI-137): 0.07714
smFRET Histogram, Mean (FRET 0.38, 0μM Glutamate + GPT/Pyruvate + 5μM MNI-137): 0.03079
smFRET Histogram, Mean (FRET 0.38, 15μM Glutamate + 5μM MNI-137): 0.07309
smFRET Histogram, Mean (FRET 0.4, 0μM Glutamate + GPT/Pyruvate + 5μM MNI-137): 0.02474
smFRET Histogram, Mean (FRET 0.4, 15μM Glutamate + 5μM MNI-137): 0.06696
smFRET Histogram, Mean (FRET 0.42, 15μM Glutamate + 5μM MNI-137): 0.05663
smFRET Histogram, Mean (FRET 0.44, 0μM Glutamate + GPT/Pyruvate + 5μM MNI-137): 0.01517
smFRET Histogram, Mean (FRET 0.44, 15μM Glutamate + 5μM MNI-137): 0.0478
smFRET Histogram, Mean (FRET 0.46, 0μM Glutamate + GPT/Pyruvate + 5μM MNI-137): 0.01122
smFRET Histogram, Mean (FRET 0.46, 15μM Glutamate + 5μM MNI-137): 0.03818
smFRET Histogram, Mean (FRET 0.48, 0μM Glutamate + GPT/Pyruvate + 5μM MNI-137): 0.00878
smFRET Histogram, Mean (FRET 0.48, 15μM Glutamate + 5μM MNI-137): 0.02974
smFRET Histogram, Mean (FRET 0.5, 0μM Glutamate + GPT/Pyruvate + 5μM MNI-137): 0.0069
smFRET Histogram, Mean (FRET 0.5, 15μM Glutamate + 5μM MNI-137): 0.02283
smFRET Histogram, Mean (FRET 0.52, 0μM Glutamate + GPT/Pyruvate + 5μM MNI-137): 0.00522
smFRET Histogram, Mean (FRET 0.52, 15μM Glutamate + 5μM MNI-137): 0.01756
smFRET Histogram, Mean (FRET 0.54, 0μM Glutamate + GPT/Pyruvate + 5μM MNI-137): 0.0038
smFRET Histogram, Mean (FRET 0.54, 15μM Glutamate + 5μM MNI-137): 0.01395
smFRET Histogram, Mean (FRET 0.56, 0μM Glutamate + GPT/Pyruvate + 5μM MNI-137): 0.00307
smFRET Histogram, Mean (FRET 0.56, 15μM Glutamate + 5μM MNI-137): 0.01177
smFRET Histogram, Mean (FRET 0.58, 0μM Glutamate + GPT/Pyruvate + 5μM MNI-137): 0.00238
smFRET Histogram, Mean (FRET 0.58, 15μM Glutamate + 5μM MNI-137): 0.0101
smFRET Histogram, Mean (FRET 0.6, 0μM Glutamate + GPT/Pyruvate + 5μM MNI-137): 0.00226
smFRET Histogram, Mean (FRET 0.6, 15μM Glutamate + 5μM MNI-137): 0.0089
smFRET Histogram, Mean (FRET 0.62, 15μM Glutamate + 5μM MNI-137): 0.0083
smFRET Histogram, Mean (FRET 0.64, 0μM Glutamate + GPT/Pyruvate + 5μM MNI-137): 0.00164
smFRET Histogram, Mean (FRET 0.64, 15μM Glutamate + 5μM MNI-137): 0.00824
smFRET Histogram, Mean (FRET 0.66, 0μM Glutamate + GPT/Pyruvate + 5μM MNI-137): 0.00119
smFRET Histogram, Mean (FRET 0.66, 15μM Glutamate + 5μM MNI-137): 0.00778
smFRET Histogram, Mean (FRET 0.68, 0μM Glutamate + GPT/Pyruvate + 5μM MNI-137): 0.00129
smFRET Histogram, Mean (FRET 0.68, 15μM Glutamate + 5μM MNI-137): 0.00775
smFRET Histogram, Mean (FRET 0.7, 0μM Glutamate + GPT/Pyruvate + 5μM MNI-137): 0.00106
smFRET Histogram, Mean (FRET 0.7, 15μM Glutamate + 5μM MNI-137): 0.00734
smFRET Histogram, Mean (FRET 0.72, 0μM Glutamate + GPT/Pyruvate + 5μM MNI-137): 9.06E-04
smFRET Histogram, Mean (FRET 0.72, 15μM Glutamate + 5μM MNI-137): 0.00691
smFRET Histogram, Mean (FRET 0.74, 0μM Glutamate + GPT/Pyruvate + 5μM MNI-137): 8.03E-04
smFRET Histogram, Mean (FRET 0.74, 15μM Glutamate + 5μM MNI-137): 0.00635
smFRET Histogram, Mean (FRET 0.76, 0μM Glutamate + GPT/Pyruvate + 5μM MNI-137): 9.58E-04
smFRET Histogram, Mean (FRET 0.76, 15μM Glutamate + 5μM MNI-137): 0.00599
smFRET Histogram, Mean (FRET 0.78, 0μM Glutamate + GPT/Pyruvate + 5μM MNI-137): 9.38E-04
smFRET Histogram, Mean (FRET 0.78, 15μM Glutamate + 5μM MNI-137): 0.00583
smFRET Histogram, Mean (FRET 0.8, 0μM Glutamate + GPT/Pyruvate + 5μM MNI-137): 8.49E-04
smFRET Histogram, Mean (FRET 0.8, 15μM Glutamate + 5μM MNI-137): 0.00559
smFRET Histogram, Mean (FRET 0.82, 0μM Glutamate + GPT/Pyruvate + 5μM MNI-137): 9.70E-04
smFRET Histogram, Mean (FRET 0.82, 15μM Glutamate + 5μM MNI-137): 0.00496
smFRET Histogram, Mean (FRET 0.84, 0μM Glutamate + GPT/Pyruvate + 5μM MNI-137): 0.00112
smFRET Histogram, Mean (FRET 0.84, 15μM Glutamate + 5μM MNI-137): 0.00504
smFRET Histogram, Mean (FRET 0.86, 0μM Glutamate + GPT/Pyruvate + 5μM MNI-137): 0.00114
smFRET Histogram, Mean (FRET 0.86, 15μM Glutamate + 5μM MNI-137): 0.00467
smFRET Histogram, Mean (FRET 0.88, 0μM Glutamate + GPT/Pyruvate + 5μM MNI-137): 0.0011
smFRET Histogram, Mean (FRET 0.9, 0μM Glutamate + GPT/Pyruvate + 5μM MNI-137): 0.0013
smFRET Histogram, Mean (FRET 0.9, 15μM Glutamate + 5μM MNI-137): 0.00455
smFRET Histogram, Mean (FRET 0.92, 0μM Glutamate + GPT/Pyruvate + 5μM MNI-137): 0.0011
smFRET Histogram, Mean (FRET 0.92, 15μM Glutamate + 5μM MNI-137): 0.00382
smFRET Histogram, Mean (FRET 0.94, 0μM Glutamate + GPT/Pyruvate + 5μM MNI-137): 8.72E-04
smFRET Histogram, Mean (FRET 0.96, 0μM Glutamate + GPT/Pyruvate + 5μM MNI-137): 0.001
smFRET Histogram, Mean (FRET 0.98, 0μM Glutamate + GPT/Pyruvate + 5μM MNI-137): 6.96E-04
smFRET Histogram, Mean (FRET 1, 0μM Glutamate + GPT/Pyruvate + 5μM MNI-137): 4.51E-04
smFRET Histogram, Mean (FRET 1.02, 0μM Glutamate + GPT/Pyruvate + 5μM MNI-137): 2.62E-04
smFRET Histogram, Mean (FRET 1.04, 0μM Glutamate + GPT/Pyruvate + 5μM MNI-137): 1.50E-04
smFRET Histogram, Mean (FRET 1.06, 0μM Glutamate + GPT/Pyruvate + 5μM MNI-137): 2.86E-05
smFRET Histogram, Mean (FRET 1.08, 0μM Glutamate + GPT/Pyruvate + 5μM MNI-137): 2.33E-05
smFRET Histogram, Mean (FRET 1.1, 0μM Glutamate + GPT/Pyruvate + 5μM MNI-137): 8.10E-05
smFRET Histogram, Mean (FRET 1.12, 0μM Glutamate + GPT/Pyruvate + 5μM MNI-137): 1.94E-05
smFRET Histogram, Mean (FRET 1.14, 0μM Glutamate + GPT/Pyruvate + 5μM MNI-137): 1.94E-05
smFRET Histogram, Mean (FRET 1.16, 0μM Glutamate + GPT/Pyruvate + 5μM MNI-137): 9.97E-06
smFRET Histogram, Mean (FRET 1.18, 0μM Glutamate + GPT/Pyruvate + 5μM MNI-137): 0
smFRET Histogram, Mean (FRET 1.2, 0μM Glutamate + GPT/Pyruvate + 5μM MNI-137): 0
Mean occupancy, state 1 (inactive, FRET 0.24) (0 μM glutamate): 0.7486
Mean occupancy, state 2 (intermediate 1, FRET 0.38) (0 μM glutamate): 0.222
Mean occupancy, state 3 (intermediate 2, FRET 0.70) (0 μM glutamate): 0.02038
Mean occupancy, state 4 (active, FRET 0.87) (0 μM glutamate): 0.00903
Mean occupancy, state 1 (inactive, FRET 0.24) (15 μM glutamate): 0.1039
Mean occupancy, state 2 (intermediate 1, FRET 0.38) (15 μM glutamate): 0.7494
Mean occupancy, state 3 (intermediate 2, FRET 0.70) (15 μM glutamate): 0.1272
Mean occupancy, state 4 (active, FRET 0.87) (15 μM glutamate): 0.01952
Mean occupancy, state 1 (inactive, FRET 0.24) (1000 μM glutamate): 0.00207
Mean occupancy, state 2 (intermediate 1, FRET 0.38) (1000 μM glutamate): 0.5597
Mean occupancy, state 3 (intermediate 2, FRET 0.70) (1000 μM glutamate): 0.331
Mean occupancy, state 4 (active, FRET 0.87) (1000 μM glutamate): 0.1072
